Test system: Echinochloa crus-galli
Assay: Test Example 1: herbicidal effect test by treatment of rice paddy soil (immediately after seeding)
Format: in vivo
Settings: 120 g/10a active ingredient, 14 days after treatment, dry weight vs untreated area
Method in brief: (§1)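 Paddy soil in pots with compound fertilizer, puddled; 30 seeds per species sown at 0–1 cm, flooded ~3 cm, greenhouse. Water-diluted emulsions dropped onto water immediately after seeding at 120 g active ingredient per 10 ares, duplicate. Herbicidal rate (%) from plant dry weight versus untreated, 14 days after treatment.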

Structure (SMILES)	Herbicidal rate (%) Echinochloa crus-galli [%]
Cc1c(Cc2ccccc2N(S(=O)(=O)C(F)(F)F)S(=O)(=O)C(F)(F)F)c(=O)on1C1CCc2ccccc21 (stereo not drawn) [Compound 1-1049]	90

Same assay, conditions: 120 g/10a active ingredient, dry weight vs untreated area, 14 days after treatment

Structure (SMILES)	Herbicidal rate (%) Echinochloa crus-galli [%]
Cc1c(Cc2ccccc2NS(=O)(=O)C(F)(F)F)c(=O)on1CCCc1ccccc1 [Compound 1-221]	90
CC(C)n1oc(=O)c(Cc2ccccc2NS(=O)(=O)C(F)(F)F)c1C1CC1 [Compound 1-83]	90

Test system: Scirpus juncoides
Assay: as above
Format: in vivo
Settings: 120 g/10a active ingredient, 14 days after treatment, dry weight vs untreated area
Method in brief: as §1

Structure (SMILES)	Herbicidal rate (%) Scirpus juncoides [%]
Cc1c(Cc2ccccc2N(S(=O)(=O)C(F)(F)F)S(=O)(=O)C(F)(F)F)c(=O)on1C1CCc2ccccc21 (stereo not drawn) [Compound 1-1049]	90

Same assay, conditions: 120 g/10a active ingredient, dry weight vs untreated area, 14 days after treatment

Structure (SMILES)	Herbicidal rate (%) Scirpus juncoides [%]
Cc1c(Cc2ccccc2NS(=O)(=O)C(F)(F)F)c(=O)on1CCCc1ccccc1 [Compound 1-221]	80
CC(C)n1oc(=O)c(Cc2ccccc2NS(=O)(=O)C(F)(F)F)c1C1CC1 [Compound 1-83]	90

Test system: broad leaf weeds (Lindernia pyxidaria and Monochoria vaginalis)
Assay: as above
Format: in vivo
Settings: Lindernia pyxidaria, 120 g/10a active ingredient, 14 days after treatment, dry weight vs untreated area
Method in brief: as §1

Structure (SMILES)	Herbicidal rate (%) Lindernia pyxidaria [%]
Cc1c(Cc2ccccc2N(S(=O)(=O)C(F)(F)F)S(=O)(=O)C(F)(F)F)c(=O)on1C1CCc2ccccc21 (stereo not drawn) [Compound 1-1049]	90

Same assay, conditions: Lindernia pyxidaria, 120 g/10a active ingredient, dry weight vs untreated area, 14 days after treatment

Structure (SMILES)	Herbicidal rate (%) Lindernia pyxidaria [%]
Cc1c(Cc2ccccc2NS(=O)(=O)C(F)(F)F)c(=O)on1CCCc1ccccc1 [Compound 1-221]	70
CC(C)n1oc(=O)c(Cc2ccccc2NS(=O)(=O)C(F)(F)F)c1C1CC1 [Compound 1-83]	100

Same assay, conditions: Monochoria vaginalis, 120 g/10a active ingredient, 14 days after treatment, dry weight vs untreated area

Structure (SMILES)	Herbicidal rate (%) Monochoria vaginalis [%]
Cc1c(Cc2ccccc2N(S(=O)(=O)C(F)(F)F)S(=O)(=O)C(F)(F)F)c(=O)on1C1CCc2ccccc21 (stereo not drawn) [Compound 1-1049]	80

Same assay, conditions: Monochoria vaginalis, 120 g/10a active ingredient, dry weight vs untreated area, 14 days after treatment

Structure (SMILES)	Herbicidal rate (%) Monochoria vaginalis [%]
Cc1c(Cc2ccccc2NS(=O)(=O)C(F)(F)F)c(=O)on1CCCc1ccccc1 [Compound 1-221]	60
CC(C)n1oc(=O)c(Cc2ccccc2NS(=O)(=O)C(F)(F)F)c1C1CC1 [Compound 1-83]	70

Test system: Echinochloa crus-galli
Assay: Test Example 2: herbicidal effect test by treatment during growing period in paddy rice cultivation (seven days after seeding)
Format: in vivo
Settings: 120 g/10a active ingredient, assessed 14 days after treatment, dry weight vs untreated area
Method in brief: (§2)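 Emulsion formulations, diluted in water, applied dropwise to flooded pots (about 3 cm water) 7 days post-seeding at 120 g a.i./10 ares. Weeds sown 30 seeds each, 0–1 cm deep in puddled paddy soil; greenhouse. Readout: % reduction in plant dry weight vs untreated, day 14, duplicates.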

Structure (SMILES)	Herbicidal rate (%) Echinochloa crus-galli [%]
Cc1c(Cc2ccccc2NS(=O)(=O)C(F)(F)F)c(=O)on1CCCc1ccccc1 [Compound 1-221]	60
CC(C)n1oc(=O)c(Cc2ccccc2NS(=O)(=O)C(F)(F)F)c1C1CC1 [Compound 1-83]	40
Cc1c(Cc2ccccc2N(S(=O)(=O)C(F)(F)F)S(=O)(=O)C(F)(F)F)c(=O)on1C1CCc2ccccc21 (stereo not drawn) [Compound 1-1049]	80

Test system: Scirpus juncoides
Assay: as above
Format: in vivo
Settings: 120 g/10a active ingredient, assessed 14 days after treatment, dry weight vs untreated area
Method in brief: as §2

Structure (SMILES)	Herbicidal rate (%) Scirpus juncoides [%]
Cc1c(Cc2ccccc2NS(=O)(=O)C(F)(F)F)c(=O)on1CCCc1ccccc1 [Compound 1-221]	40
CC(C)n1oc(=O)c(Cc2ccccc2NS(=O)(=O)C(F)(F)F)c1C1CC1 [Compound 1-83]	60
Cc1c(Cc2ccccc2N(S(=O)(=O)C(F)(F)F)S(=O)(=O)C(F)(F)F)c(=O)on1C1CCc2ccccc21 (stereo not drawn) [Compound 1-1049]	70

Test system: broad leaf weeds (Lindernia pyxidaria and Monochoria vaginalis)
Assay: as above
Format: in vivo
Settings: Lindernia pyxidaria, 120 g/10a active ingredient, assessed 14 days after treatment, dry weight vs untreated area
Method in brief: as §2

Structure (SMILES)	Herbicidal rate (%) Lindernia pyxidaria [%]
Cc1c(Cc2ccccc2NS(=O)(=O)C(F)(F)F)c(=O)on1CCCc1ccccc1 [Compound 1-221]	40
CC(C)n1oc(=O)c(Cc2ccccc2NS(=O)(=O)C(F)(F)F)c1C1CC1 [Compound 1-83]	40
Cc1c(Cc2ccccc2N(S(=O)(=O)C(F)(F)F)S(=O)(=O)C(F)(F)F)c(=O)on1C1CCc2ccccc21 (stereo not drawn) [Compound 1-1049]	60

Same assay, conditions: Monochoria vaginalis, 120 g/10a active ingredient, assessed 14 days after treatment, dry weight vs untreated area

Structure (SMILES)	Herbicidal rate (%) Monochoria vaginalis [%]
Cc1c(Cc2ccccc2NS(=O)(=O)C(F)(F)F)c(=O)on1CCCc1ccccc1 [Compound 1-221]	40
CC(C)n1oc(=O)c(Cc2ccccc2NS(=O)(=O)C(F)(F)F)c1C1CC1 [Compound 1-83]	40
Cc1c(Cc2ccccc2N(S(=O)(=O)C(F)(F)F)S(=O)(=O)C(F)(F)F)c(=O)on1C1CCc2ccccc21 (stereo not drawn) [Compound 1-1049]	70

Test system: Amaranthus viridis
Assay: Test Example 3: herbicidal effect test by treatment of dry field farming soil (one day after seeding)
Format: in vivo
Settings: 120 g/10a active ingredient, evaluated 14 days after treatment
Protocol: (§3) This test was conducted in a double system per one agent solution concentration area, and the herbicidal rates (%) were determined by the following equation (Math. 1) on 14 days after the treatment with the agents. Herbicidal Rate (%)={1-(Average Dry Weight (g) of Plant of Treated Area)/(Average Dry Weight (g) of Plant of Untreated Area)}×100 [Math. 1]
(§4) Herbicidal Effect Test by Treatment of Dry Field Farming Soil
(§5) Pots with a size of 36 cm^2 were filled with a dry field farming soil (alluvium). The soil of the top layer of 1 cm and seeds of weeds, namely southern crabgrass, Echinochloa crus-galli, Chenopodium album and Amaranthus viridis, 20 seeds each, were evenly mixed, and the top layer was gently pressed. Emulsions prepared using the compounds in Table 5 below according to Formulation Example 5 were diluted with water one day after seeding, and the water-diluted agent solutions were sprayed to the soil surfaces at a ratio of 100 liters per 10 ares. The converted amount of the applied active ingredient corresponded to 120 g per 10 ares. The herbicidal effects were evaluated by the same standard as that in Test Example 1 on 14 days after the treatment with the agents. […] The compound numbers in Table 5 are the same as those in Table 1 and Table 2 above.

Structure (SMILES)	herbicidal rate, Amaranthus viridis [%]
Cc1c(Cc2ccccc2NS(=O)(=O)C(F)(F)F)c(=O)on1CCCc1ccccc1 [Compound 1-221]	50
CC(C)n1oc(=O)c(Cc2ccccc2NS(=O)(=O)C(F)(F)F)c1C1CC1 [Compound 1-83]	40
Cc1c(Cc2ccccc2N(S(=O)(=O)C(F)(F)F)S(=O)(=O)C(F)(F)F)c(=O)on1C1CCc2ccccc21 (stereo not drawn) [Compound 1-1049]	50

Test system: Chenopodium album
Assay: as above
Format: in vivo
Settings: 120 g/10a active ingredient, evaluated 14 days after treatment
Protocol: as §3, §4, §5

Structure (SMILES)	herbicidal rate, Chenopodium album [%]
Cc1c(Cc2ccccc2NS(=O)(=O)C(F)(F)F)c(=O)on1CCCc1ccccc1 [Compound 1-221]	40
CC(C)n1oc(=O)c(Cc2ccccc2NS(=O)(=O)C(F)(F)F)c1C1CC1 [Compound 1-83]	40
Cc1c(Cc2ccccc2N(S(=O)(=O)C(F)(F)F)S(=O)(=O)C(F)(F)F)c(=O)on1C1CCc2ccccc21 (stereo not drawn) [Compound 1-1049]	50

Test system: Echinochloa crus-galli
Assay: as above
Format: in vivo
Settings: 120 g/10a active ingredient, evaluated 14 days after treatment
Protocol: as §3, §4, §5

Structure (SMILES)	herbicidal rate, Echinochloa crus-galli [%]
Cc1c(Cc2ccccc2NS(=O)(=O)C(F)(F)F)c(=O)on1CCCc1ccccc1 [Compound 1-221]	70
CC(C)n1oc(=O)c(Cc2ccccc2NS(=O)(=O)C(F)(F)F)c1C1CC1 [Compound 1-83]	50
Cc1c(Cc2ccccc2N(S(=O)(=O)C(F)(F)F)S(=O)(=O)C(F)(F)F)c(=O)on1C1CCc2ccccc21 (stereo not drawn) [Compound 1-1049]	90

Test system: southern crabgrass
Assay: as above
Format: in vivo
Settings: 120 g/10a active ingredient, evaluated 14 days after treatment
Protocol: as §3, §4, §5

Structure (SMILES)	herbicidal rate, southern crabgrass [%]
Cc1c(Cc2ccccc2NS(=O)(=O)C(F)(F)F)c(=O)on1CCCc1ccccc1 [Compound 1-221]	50
CC(C)n1oc(=O)c(Cc2ccccc2NS(=O)(=O)C(F)(F)F)c1C1CC1 [Compound 1-83]	40
Cc1c(Cc2ccccc2N(S(=O)(=O)C(F)(F)F)S(=O)(=O)C(F)(F)F)c(=O)on1C1CCc2ccccc21 (stereo not drawn) [Compound 1-1049]	80

Source: patent US11109593B2, “Isoxazolin-5-one derivative and herbicide containing same as active ingredient” (HOKKO CHEMICAL INDUSTRY CO., LTD., priority 2017, dated 2021)
